Each block holds one compound with its values, some of them ahead of it. Activity calls are given as the source filed them. No cut-off for these calls is given here.
What was measured:
[1] = tested on: NCI-H358; assay: Antiproliferative activity against human NCI-H358 cells expressing KRAS G12C mutant assessed as inhibition of cell growth incubated for 72 hrs by CCK-8 assay; format: functional, cell-based; conditions: NCI-H358, 72 h
[2] = tested on: MIA PaCa-2; assay: Antiproliferative activity against human MIA PaCa-2 cells expressing KRAS G12C mutant assessed as inhibition of cell growth incubated for 72 hrs by CCK-8 assay; format: functional, cell-based; conditions: MIA PaCa-2, 72 h
[3] = tested on: ASPC1; assay: Antiproliferative activity against human ASPC1 cells expressing KRAS G12D mutant assessed as inhibition of cell growth incubated for 72 hrs by CCK-8 assay; format: functional, cell-based; conditions: ASPC1, 72 h
[4] = Cytotoxicity against HEK293T cells assessed as inhibition of cell growth incubated for 72 hrs by CCK-8 assay; format: toxicity, cell-based, HEK-293T; conditions: human
[5] = tested on: HepG2; assay: Antiproliferative activity against human HepG2 cells expressing KRAS assessed as inhibition of cell growth incubated for 72 hrs by CCK-8 assay; format: functional, cell-based; conditions: HepG2, 72 h
[6] = tested on: MIA PaCa-2; assay: Antiproliferative activity against human MIA PaCa-2 cells expressing KRAS G12C mutant assessed as relative cell viability at 200 nM incubated for 72 hrs by CCK-8 assay; format: functional; conditions: read-out: Activity
[7] = tested on: Calu-1; assay: Antiproliferative activity against human Calu-1 cells expressing KRAS G12C mutant assessed as relative cell viability at 200 nM incubated for 72 hrs by CCK-8 assay; format: functional; conditions: read-out: Activity
[8] = tested on: SW837; assay: Antiproliferative activity against human SW837 cells expressing KRAS G12C mutant assessed as relative cell viability at 200 nM incubated for 72 hrs by CCK-8 assay; format: functional; conditions: read-out: Activity
[9] = tested on: NCI-H358; assay: Antiproliferative activity against human NCI-H358 cells expressing KRAS G12C mutant assessed as relative cell viability at 200 nM incubated for 72 hrs by CCK-8 assay; format: functional; conditions: read-out: Activity
[10] = tested on: NCI-H23; assay: Antiproliferative activity against human NCI-H23 cells expressing KRAS G12C mutant assessed as relative cell viability at 200 nM incubated for 72 hrs by CCK-8 assay; format: functional; conditions: read-out: Activity
[11] = tested on: NCI-H23; assay: Antiproliferative activity against human NCI-H23 cells expressing KRAS G12C mutant assessed as relative cell viability at 50 nM incubated for 72 hrs by CCK-8 assay; format: functional; conditions: read-out: Activity
[12] = tested on: SW837; assay: Antiproliferative activity against human SW837 cells expressing KRAS G12C mutant assessed as relative cell viability at 50 nM incubated for 72 hrs by CCK-8 assay; format: functional; conditions: read-out: Activity
[13] = tested on: MIA PaCa-2; assay: Antiproliferative activity against human MIA PaCa-2 cells expressing KRAS G12C mutant assessed as relative cell viability at 50 nM incubated for 72 hrs by CCK-8 assay; format: functional; conditions: read-out: Activity
[14] = tested on: Calu-1; assay: Antiproliferative activity against human Calu-1 cells expressing KRAS G12C mutant assessed as relative cell viability at 50 nM incubated for 72 hrs by CCK-8 assay; format: functional; conditions: read-out: Activity
[15] = tested on: NCI-H358; assay: Antiproliferative activity against human NCI-H358 cells expressing KRAS G12C mutant assessed as relative cell viability at 50 nM incubated for 72 hrs by CCK-8 assay; format: functional; conditions: read-out: Activity
[16] = tested on: NCI-H358; assay: Antiproliferative activity against human NCI-H358 cells expressing KRAS G12C mutant assessed as relative cell viability at 100 nM incubated for 72 hrs by CCK-8 assay; format: functional; conditions: read-out: Activity
[17] = tested on: Calu-1; assay: Antiproliferative activity against human Calu-1 cells expressing KRAS G12C mutant assessed as relative cell viability at 100 nM incubated for 72 hrs by CCK-8 assay; format: functional; conditions: read-out: Activity
[18] = tested on: NCI-H23; assay: Antiproliferative activity against human NCI-H23 cells expressing KRAS G12C mutant assessed as relative cell viability at 100 nM incubated for 72 hrs by CCK-8 assay; format: functional; conditions: read-out: Activity
[19] = tested on: SW837; assay: Antiproliferative activity against human SW837 cells expressing KRAS G12C mutant assessed as relative cell viability at 100 nM incubated for 72 hrs by CCK-8 assay; format: functional; conditions: read-out: Activity
[20] = tested on: MIA PaCa-2; assay: Antiproliferative activity against human MIA PaCa-2 cells expressing KRAS G12C mutant assessed as relative cell viability at 100 nM incubated for 72 hrs by CCK-8 assay; format: functional; conditions: read-out: Activity
[21] = tested on: von Hippel-Lindau disease tumor suppressor/GTPase KRas (Homo sapiens), P01116+P40337 [G12C]; assay: PROTAC activity at VHL/KRAS G12C mutant in human MIA PaCa-2 cells assessed as induction of protein degradation at 10 to 1000 nM incubated for 48 hrs by Western blotting analysis; format: cell-based; conditions: dose 10-1000 nM
[22] = tested on: von Hippel-Lindau disease tumor suppressor/GTPase KRas (Homo sapiens), P01116+P40337 [G12C]; assay: PROTAC activity at VHL/KRAS G12C mutant in human NCI-H358 cells assessed as induction of protein degradation at 10 to 1000 nM incubated for 48 hrs by Western blotting analysis; format: cell-based; conditions: dose 10-1000 nM

IC50 [1]: 222 nM
IC50 [2]: 200 nM
IC50 [3]: > 10000 nM
IC50 [5]: > 10000 nM
SMILES: C=CC(=O)N1CCN(c2nc(=O)n(-c3c(C)ccnc3C(C)C)c3nc(-c4c(F)cccc4OCc4cn(CCC(=O)N[C@H](C(=O)N5C[C@H](O)C[C@H]5C(=O)NCc5ccc(-c6scnc6C)cc5)C(C)(C)C)nn4)c(F)cc23)[C@@H](C)C1
IC50 at 72 h [4]: > 10000 nM

IC50 [1]: 765 nM
IC50 [2]: 690 nM
IC50 [3]: > 10000 nM
IC50 [5]: > 10000 nM
SMILES: C=CC(=O)N1CCN(c2nc(=O)n(-c3c(C)ccnc3C(C)C)c3nc(-c4c(F)cccc4OCCOCCOCC(=O)Nc4cccc5c4CN(C4CCC(=O)NC4=O)C5=O)c(F)cc23)[C@@H](C)C1 (some centres undefined)
IC50 at 72 h [4]: > 10000 nM

SMILES: C[C@@H](Oc1cc(-c2cnn(C3CCNCC3)c2)cnc1N)c1c(Cl)ccc(F)c1Cl [CRIZOTINIB]
viability at 0.2 µM [6]: 0.79%
viability at 0.2 µM [7]: 0.87%
viability at 0.2 µM [8]: 0.77%
viability at 0.2 µM [9]: 0.82%
viability at 0.2 µM [10]: 0.81%

SMILES: Cn1cnc2c(F)c(Nc3ccc(Br)cc3Cl)c(C(=O)NOCCO)cc21 [SELUMETINIB]
viability at 0.05 µM [11]: 0.77%
viability at 0.05 µM [12]: 0.73%
viability at 0.05 µM [13]: 0.71%
viability at 0.05 µM [14]: 0.82%
viability at 0.05 µM [15]: 0.86%

SMILES: NC1(c2ccc(-c3nc4ccn5c(=O)[nH]nc5c4cc3-c3ccccc3)cc2)CCC1 [MK-2206]
viability at 0.1 µM [16]: 0.88%
viability at 0.1 µM [17]: 0.82%
viability at 0.1 µM [18]: 0.85%
viability at 0.1 µM [19]: 0.84%
viability at 0.1 µM [20]: 0.92%

SMILES: Cn1c(=O)n(-c2ccc(C(C)(C)C#N)cc2)c2c3cc(-c4cnc5ccccc5c4)ccc3ncc21 [DACTOLISIB]
viability at 0.05 µM [11]: 0.79%
viability at 0.05 µM [12]: 0.82%
viability at 0.05 µM [13]: 0.7%
viability at 0.05 µM [14]: 0.88%
viability at 0.05 µM [15]: 0.77%

IC50 [1]: 289 nM
IC50 [2]: 481 nM
IC50 [3]: > 10000 nM
IC50 [5]: > 10000 nM
SMILES: C=CC(=O)N1CCN(c2nc(=O)n(-c3c(C)ccnc3C(C)C)c3nc(-c4c(F)cccc4OCc4cn(CCCCCC(=O)N[C@H](C(=O)N5C[C@H](O)C[C@H]5C(=O)NCc5ccc(-c6scnc6C)cc5)C(C)(C)C)nn4)c(F)cc23)[C@@H](C)C1
IC50 at 72 h [4]: > 10000 nM

SMILES: Cc1ccc(NC(=O)c2ccnc(C(F)(F)F)c2)cc1-c1cc(OCCO)nc(N2CCOCC2)c1 [NAPORAFENIB]
viability at 0.1 µM [16]: 0.81%
viability at 0.1 µM [17]: 0.9%
viability at 0.1 µM [18]: 0.82%
viability at 0.1 µM [19]: 0.85%
viability at 0.1 µM [20]: 0.79%

SMILES: C=CC(=O)N1CCN(c2nc(=O)n(-c3c(C)ccnc3C(C)C)c3nc(-c4c(F)cccc4OCC4CCN(CCCC(=O)N[C@H](C(=O)N5CC(O)C[C@H]5C(=O)NCc5ccc(-c6scnc6C)cc5)C(C)(C)C)CC4)c(F)cc23)[C@@H](C)C1 (some centres undefined)
IC50 [1]: 588 nM
IC50 [2]: 278 nM
Activity [21]: inactive
Activity [22]: inactive
